According to ChEMBL document CHEMBL4033736, “A new type of pharmacological chaperone for GM1-gangliosidosis related human lysosomal β-galactosidase: N-Substituted 5-amino-1-hydroxymethyl-cyclopentanetriols” (Bioorg Med Chem Lett, 2017):
Where a chain is given by its changes, count along the chain named. The source made the active and inactive calls. No cut-off for these calls is given here.

Assays:
[1] = Competitive inhibition of Saccharomyces cerevisiae alpha-glucosidase using 4-nitrophenyl alpha-[…] as substrate pre-incubated for up to 5 mins before substrate addition
[2] = Competitive inhibition of Escherichia coli lacZ beta-galactosidase using 4-nitrophenyl beta-D-galactopyranoside as substrate pre-incubated for up to 5 mins before substrate addition
[3] = Competitive inhibition of Agrobacterium sp. beta-glucosidase using 4-nitrophenyl beta-D-galactopyranoside as substrate pre-incubated for up to 5 mins before substrate addition
[4] = molecular target: T1, Lysosomal acid glucosylceramidase (Homo sapiens, UniProt P04062); test: Competitive inhibition of recombinant beta-glucocerebrosidase (unknown origin) using 4-nitrophenyl beta-D-[…] as substrate pre-incubated for up to 5 mins before substrate addition
T1 sequence (P04062 whole entry): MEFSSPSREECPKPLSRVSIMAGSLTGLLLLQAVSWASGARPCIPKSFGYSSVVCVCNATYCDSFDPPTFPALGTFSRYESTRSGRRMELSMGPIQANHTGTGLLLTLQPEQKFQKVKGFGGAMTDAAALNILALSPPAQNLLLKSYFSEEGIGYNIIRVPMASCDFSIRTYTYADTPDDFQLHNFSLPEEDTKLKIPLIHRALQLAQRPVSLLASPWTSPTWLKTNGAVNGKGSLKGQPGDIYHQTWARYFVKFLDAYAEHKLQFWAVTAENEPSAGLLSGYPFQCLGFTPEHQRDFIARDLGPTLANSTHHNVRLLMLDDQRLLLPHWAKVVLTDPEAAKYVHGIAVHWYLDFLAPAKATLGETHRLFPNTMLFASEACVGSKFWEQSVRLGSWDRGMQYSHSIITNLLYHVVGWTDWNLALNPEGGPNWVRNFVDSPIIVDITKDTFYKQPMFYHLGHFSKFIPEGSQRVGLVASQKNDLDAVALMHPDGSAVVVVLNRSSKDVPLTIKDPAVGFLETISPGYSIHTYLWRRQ

[5] = Competitive inhibition of Fabrazyme (human recombinant alpha-galactosidase) using 4-nitrophenyl alpha-galactopyranoside as substrate pre-incubated for up to 5 mins before substrate addition
[6] = molecular target: T2, Beta-galactosidase (Bos taurus, UniProt Q58D55); test: Competitive inhibition of Bovine liver beta-galactosidase using 4-nitrophenyl beta-D-galactopyranoside as substrate pre-incubated for up to 5 mins before substrate addition
T2 sequence (Q58D55 whole entry): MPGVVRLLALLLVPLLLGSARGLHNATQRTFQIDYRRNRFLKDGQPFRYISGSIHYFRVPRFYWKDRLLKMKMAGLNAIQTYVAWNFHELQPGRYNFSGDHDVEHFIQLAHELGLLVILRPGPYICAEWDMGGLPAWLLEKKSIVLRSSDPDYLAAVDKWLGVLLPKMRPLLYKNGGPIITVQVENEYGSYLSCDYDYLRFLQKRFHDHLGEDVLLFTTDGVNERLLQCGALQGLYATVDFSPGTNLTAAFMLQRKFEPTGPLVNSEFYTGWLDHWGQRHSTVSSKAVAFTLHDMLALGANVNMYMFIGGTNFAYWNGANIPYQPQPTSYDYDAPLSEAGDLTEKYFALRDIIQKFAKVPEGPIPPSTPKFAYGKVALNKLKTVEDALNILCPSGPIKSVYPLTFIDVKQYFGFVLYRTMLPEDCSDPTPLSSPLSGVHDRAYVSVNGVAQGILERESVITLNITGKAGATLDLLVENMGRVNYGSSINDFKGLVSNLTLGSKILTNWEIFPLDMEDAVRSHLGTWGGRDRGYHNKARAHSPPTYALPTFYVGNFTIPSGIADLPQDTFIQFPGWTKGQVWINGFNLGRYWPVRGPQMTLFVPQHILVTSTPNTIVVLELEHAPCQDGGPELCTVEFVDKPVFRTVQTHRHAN

[7] = molecular target: T3, Beta-galactosidase (Homo sapiens, UniProt P16278); test: Competitive inhibition of human fibroblast lysosomal beta-galactosidase using 4-methylumbelliferyl-beta-D-galactopyranoside as substrate pre-incubated for up to 5 mins before substrate addition and measured after 30 mins
T3 sequence (P16278 whole entry): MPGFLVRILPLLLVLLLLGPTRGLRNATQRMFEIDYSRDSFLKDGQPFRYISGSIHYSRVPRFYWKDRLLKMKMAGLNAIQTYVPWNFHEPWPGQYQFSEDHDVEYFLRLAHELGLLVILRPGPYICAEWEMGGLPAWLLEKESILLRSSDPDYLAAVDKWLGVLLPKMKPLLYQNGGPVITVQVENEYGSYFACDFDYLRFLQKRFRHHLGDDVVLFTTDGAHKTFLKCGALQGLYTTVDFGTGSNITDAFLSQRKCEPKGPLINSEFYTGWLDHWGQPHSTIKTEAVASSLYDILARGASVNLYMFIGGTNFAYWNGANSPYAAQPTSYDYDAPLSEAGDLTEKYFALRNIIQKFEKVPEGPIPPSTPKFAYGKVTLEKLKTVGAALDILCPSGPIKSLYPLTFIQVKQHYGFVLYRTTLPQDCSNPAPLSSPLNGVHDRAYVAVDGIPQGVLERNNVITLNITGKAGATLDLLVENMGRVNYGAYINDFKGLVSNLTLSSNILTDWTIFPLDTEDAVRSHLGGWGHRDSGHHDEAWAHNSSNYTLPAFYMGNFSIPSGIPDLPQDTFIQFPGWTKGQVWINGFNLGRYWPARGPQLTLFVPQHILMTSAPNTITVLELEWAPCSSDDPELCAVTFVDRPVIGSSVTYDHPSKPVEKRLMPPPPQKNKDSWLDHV

[8] = test system: T4, Beta-galactosidase (Homo sapiens), P16278 [R201C]; test: Chaperone activity at beta-galactosidase R201C mutant isolated from human patient fibroblasts assessed as increase in enzyme activity at 10 uM using 4-nitrophenyl beta-D-galactopyranoside as substrate relative to untreated control
T4 sequence (whole entry): T3 sequence (P16278 whole entry) with R201C

[9] = test system: T4, Beta-galactosidase (Homo sapiens), P16278 [R201C]; test: Chaperone activity at beta-galactosidase R201C mutant isolated from human patient fibroblasts assessed as increase in enzyme activity at 1 uM using 4-nitrophenyl beta-D-galactopyranoside as substrate relative to untreated control
[10] = test system: T4, Beta-galactosidase (Homo sapiens), P16278 [R201C]; test: Chaperone activity at beta-galactosidase R201C mutant isolated from human patient fibroblasts assessed as increase in enzyme activity at 0.1 uM using 4-nitrophenyl beta-D-galactopyranoside as substrate relative to untreated control
[11] = test system: T4, Beta-galactosidase (Homo sapiens), P16278 [R201C]; test: Inhibition of beta-galactosidase R201C mutant isolated from human patient fibroblasts at 1 uM using 4-nitrophenyl beta-D-galactopyranoside as substrat
[12] = test system: T4, Beta-galactosidase (Homo sapiens), P16278 [R201C]; test: Chaperone activity at beta-galactosidase R201C mutant isolated from human patient fibroblasts assessed as increase increase in thermal stability at 0.2 uM at 48 degC by thermal stability assay
[13] = test system: T4, Beta-galactosidase (Homo sapiens), P16278 [R201C]; test: Chaperone activity at beta-galactosidase R201C mutant isolated from human patient fibroblasts assessed as increase in enzyme activity at 0.2 uM using 4-nitrophenyl beta-D-galactopyranoside as substrate relative to untreated control
[14] = test system: T4, Beta-galactosidase (Homo sapiens), P16278 [R201C]; test: Chaperone activity at beta-galactosidase R201C mutant isolated from human patient fibroblasts assessed as increase in enzyme activity at 0.05 uM using 4-nitrophenyl beta-D-galactopyranoside as substrate relative to untreated control

Compound	Ki [1]	Ki [2]	Ki [3]	Ki [4]	Ki [5]	Ki [6]	Ki [7]	fold change (FC) [8]	fold change (FC) [9]	fold change (FC) [10]	inhibition [11]	Activity [12]	fold change (FC) [13]	Activity [9]	fold change (FC) [14]
N#CCCCCCN[C@H]1[C@H](O)[C@@H](O)[C@@H](O)[C@H]1CO	> 2000 µM	0.13 µM	0.006 µM	10.7 µM	> 2000 µM	0.11 µM	–	–	–	–	–	–	–	–	–
N#CCCCN[C@H]1[C@H](O)[C@@H](O)[C@@H](O)[C@H]1CO	> 2000 µM	0.068 µM	0.0024 µM	10.3 µM	> 2000 µM	0.13 µM	–	–	–	–	–	–	–	–	–
CCCCCCCCN[C@@H]1C=C(CO)[C@H](O)[C@H](O)[C@H]1O	> 2000 µM	2.8 µM	7.7 µM	83 µM	> 2000 µM	–	0.51 µM	–	–	–	–	–	–	–	–
CN(C)c1cccc2c(S(=O)(=O)NCCCCCCN[C@H]3[C@H](O)[C@@H](O)[C@@H](O)[C@H]3CO)cccc12	> 2000 µM	0.01 µM	0.0012 µM	0.019 µM	238 µM	0.0053 µM	0.29 µM	7.4	6	4	–	–	–	–	–
CN(C)c1cccc2c(S(=O)(=O)NCCCCCCN(C)[C@H]3[C@H](O)[C@@H](O)[C@@H](O)[C@H]3CO)cccc12	> 2000 µM	0.016 µM	0.0028 µM	0.001 µM	> 2000 µM	–	–	–	–	–	–	–	–	–	–
NCCCCCCN[C@H]1[C@H](O)[C@@H](O)[C@@H](O)[C@H]1CO	> 2000 µM	16 µM	0.096 µM	54.2 µM	> 2000 µM	31 µM	9.2 µM	–	–	–	Active	Active	5	inactive	4
OC[C@@H]1[C@H](O)[C@H](O)[C@@H](O)[C@@H]1N1CCCC1	> 2000 µM	33 µM	1.8 µM	123 µM	> 2000 µM	–	–	–	–	–	–	–	–	–	–
